Series [1] relates to Candida albicans. As to the kind of experiment: Antifungal activity against Candida albicans SC5314 incubated for 24 hrs by microbroth dilution method. Type of series: functional. In general terms: In broth dilution the organism is exposed to a series of concentrations in liquid medium.
Series [2] is described as follows: Cytotoxicity against HUVEC assessed as cell viability at 64 ug/ml incubated for 24 hrs by CCK-8 assay. Particulars: human, HUVEC cells, at 64 µg/mL, read-out: Activity. In kind it is toxicity, cell-based.
The subject of series [3] is Candida parapsilosis. As to the kind of experiment: Antifungal activity against Candida parapsilosis 90018. In kind it is functional. As to conditions: Lodderomyces parapsilosis.
Series [4] relates to Candida tropicalis. As to the kind of experiment: Antifungal activity against Candida tropicalis 112936. In kind it is functional.
The subject of series [5] is Candida albicans. As to the kind of experiment: Antifungal activity against Candida albicans 14#. Type of series: functional.
Series [6] deals with [Candida] auris. As to the kind of experiment: Antifungal activity against Candida auris BS12372. Type of series: functional. As to conditions: Candidozyma auris.
In series [7] the test system is Candida albicans. As to the kind of experiment: Antifungal activity against Candida albicans 25#. In kind it is functional.
The subject of series [8] is Cryptococcus neoformans. As to the kind of experiment: Antifungal activity against Cryptococcus neoformans H99 incubated for 72 hrs by microbroth dilution method. Type of series: functional.
Series [9] has as its system Candida albicans. As to the kind of experiment: Antifungal activity against Candida albicans 28#. Type of series: functional.
The test system of series [10] is [Candida] auris. As to the kind of experiment: Antifungal activity against Candida auris 887. In kind it is functional. As to conditions: Candidozyma auris.
Series [11] deals with Pichia kudriavzevii. As to the kind of experiment: Antifungal activity against Candida krusei 629. In kind it is functional.
Series [12] deals with Candida parapsilosis. As to the kind of experiment: Antifungal activity against Candida parapsilosis 660. Type of series: functional. Particulars: Lodderomyces parapsilosis.
The test system of series [13] is [Candida] auris. As to the kind of experiment: Antifungal activity against Candida auris 791. Type of series: functional. As to conditions: Candidozyma auris.
Series [14] deals with Candida albicans. As to the kind of experiment: Antifungal activity against Candida albicans 20#. Type of series: functional.
For series [15], the system named is Aspergillus fumigatus. As to the kind of experiment: Antifungal activity against Aspergillus fumigatus 7544 incubated for 48 hrs by microbroth dilution method. Type of series: functional.
Series [16] in a line: in vitro. As to conditions: human, Caco-2 cells; at 64 µg/mL.
The subject of series [17] is Candida albicans. As to the kind of experiment: Antifungal activity against Candida albicans 305. In kind it is functional.
Series [18] deals with Candida albicans. As to the kind of experiment: Antifungal activity against Candida albicans 12#. In kind it is functional.
Series [19] has as its system Candida tropicalis. As to the kind of experiment: Antifungal activity against Candida tropicalis ATCC750. Type of series: functional.
The test system of series [20] is Pichia kudriavzevii. As to the kind of experiment: Antifungal activity against Candida krusei 467. Type of series: functional.
The test system of series [21] is Pichia kudriavzevii. As to the kind of experiment: Antifungal activity against Candida krusei 463. In kind it is functional.
The subject of series [22] is [Candida] auris. As to the kind of experiment: Antifungal activity against Candida auris D12. Type of series: functional. Particulars: Candidozyma auris.
For series [23], the system named is Nakaseomyces glabratus. As to the kind of experiment: Antifungal activity against Candida glabrata ATCC2001. In kind it is functional.
The subject of series [24] is Pichia kudriavzevii. As to the kind of experiment: Antifungal activity against Candida krusei 397. Type of series: functional.
The subject of series [25] is Candida parapsilosis. As to the kind of experiment: Antifungal activity against Candida parapsilosis 700. Type of series: functional. As to conditions: Lodderomyces parapsilosis.
Series [26] relates to Candida albicans. As to the kind of experiment: Antifungal activity against Candida albicans 162. Type of series: functional.

Values after ≈ are worked out from the molar mass of the structure shown.

Consider `CC[C@@H]([C@H](C)O)n1ncn(-c2ccc(N3CCN(c4ccc(OC[C@@H]5CO[C@@](Cn6cncn6)(c6ccc(F)cc6F)C5)cc4)CC3)cc2)c1=O` [POSACONAZOLE], for which the MIC in series [1] was 0.125 µg/mL (≈ 0.178 µM); in [3] it was 0.5 µg/mL (≈ 0.713 µM); in series [4], more than 16 µg/mL; in [5], more than 64 µg/mL; in series [6], not above 0.125 µg/mL; in [7], more than 64 µg/mL. Besides, the MIC is 0.5 µg/mL (≈ 0.713 µM) in series [8]; 0.5 µg/mL (≈ 0.713 µM) in series [9]; not above 0.125 µg/mL in series [10]; 2 µg/mL (≈ 2.85 µM) in series [11]; 0.5 µg/mL (≈ 0.713 µM) in series [12]; not above 0.125 µg/mL in [13]. Moreover, the MIC in [14] is 0.5 µg/mL (≈ 0.713 µM); in series [15], 0.5 µg/mL (≈ 0.713 µM); in series [17], more than 16 µg/mL; in series [18], more than 64 µg/mL; in series [19] it was more than 16 µg/mL; in [20] it was 2 µg/mL (≈ 2.85 µM). Besides, the MIC is 2 µg/mL (≈ 2.85 µM) in [21]; not above 0.125 µg/mL in series [22]; 2 µg/mL (≈ 2.85 µM) in series [23]; 2 µg/mL (≈ 2.85 µM) in [24]; 1 µg/mL (≈ 1.43 µM) in series [25]; more than 64 µg/mL in series [26]. Further, the viability at 24 h, 64 ug/ml worked out at 115% in series [2] and 68.3% in series [16].

On to `CCC(C)n1ncn(-c2ccc(N3CCN(c4ccc(OCC5COC(Cn6cncn6)(c6ccc(Cl)cc6Cl)O5)cc4)CC3)cc2)c1=O` (configuration not stated) [ITRACONAZOLE], for which the MIC in series [3] was 0.5 µg/mL (≈ 0.709 µM); in series [4], more than 16 µg/mL; in [5], more than 64 µg/mL; in series [6], 1 µg/mL (≈ 1.42 µM); in series [7] it was more than 64 µg/mL; in series [9], 0.5 µg/mL (≈ 0.709 µM). Besides, the MIC in [10] is 4 µg/mL (≈ 5.67 µM); in series [11], 1 µg/mL (≈ 1.42 µM); in series [12], 1 µg/mL (≈ 1.42 µM); in series [13] it was 4 µg/mL (≈ 5.67 µM); in series [14], 0.5 µg/mL (≈ 0.709 µM); in series [17], more than 16 µg/mL. For the same compound, the MIC was more than 64 µg/mL in series [18]; more than 16 µg/mL in [19]; 2 µg/mL (≈ 2.83 µM) in series [20]; 1 µg/mL (≈ 1.42 µM) in series [21]; 4 µg/mL (≈ 5.67 µM) in series [22]; 2 µg/mL (≈ 2.83 µM) in series [23]. Besides, the MIC was 2 µg/mL (≈ 2.83 µM) in series [24], 4 µg/mL (≈ 5.67 µM) in [25] and more than 64 µg/mL in series [26].

A word on the MIC: it is the least concentration at which growth counts as inhibited. A higher MIC goes with a need for much substance.

The values are drawn from ChEMBL document CHEMBL5150076, “Discovery of Novel Orally Bioavailable Triazoles with Potent and Broad-Spectrum Antifungal Activity In Vitro and In Vivo” (J Med Chem, 2022).
